Test results: article PMC8667930, “Novel sulphonamide-bearing methoxyquinazolinone derivatives as anticancer and apoptosis inducers: synthesis, biological evaluation and in silico studies” (Journal of Enzyme Inhibition and Medicinal Chemistry, 2021)

Tests used:
caspase-7 [1] = assay: Western blot, caspase-7 protein level in MCF-7 cells; type: cell-based, human; details: MCF-7, 10, 20 and 30 μM, 24 h, β-actin internal control
Experimental: (§1) MCF-7 cells were treated with compounds 6 and 10 for 24 h. The cells were then harvested and washed twice with 1x PBS, by adding lysis buffer containing 20 mM Tris (pH 7.5), 150 mM NaCl, 1 mM sodium ethylenediaminetetraacetic acid, 1 mM ethylene glycol-bis (β-aminoethyl ether)-N,N,N′,N′-tetraacetic acid, 1% Triton X100, 1 µg/mL leupeptin, and 100 µM phenylmethylsulphonyl fluoride, to prepare the total cell extract. The lysate was cooled on ice for 1 h and clarified by centrifugation at 13000 rpm at 4 °C for 15 min. The supernatants were collected. The protein concentrations of all the samples were determined using Bradford reagent (BioRad, Hercules, CA, USA). For western blot analysis, 30 − 35 µg of the total protein was loaded onto 10% sodium dodecyl sulphate-polyacrylamide gel and then transferred to a polyvinylidene fluoride membrane. The membrane was blocked with 5% bovine serum albumin in 0.1% Tween-tris-buffered saline (TBST) buffer for 2 h at room temperature, and then washed thrice with TBST. The membrane was incubated with primary antibodies for Bcl-2, p53, caspase7, Bax, and β-actin (1:200, Santa Cruz Biotechnology). […] It was then ready for immunodetection; the membrane was incubated with enhanced chemiluminescence western blotting detection reagents (Amersham, Pharmacia Biotech Inc., Piscataway, NJ, USA) and bands were obtained on exposing to X-ray films (Amersham).

Bax [2] = assay: RT-PCR, Bax mRNA expression in MCF-7 cells; type: cell-based, human; details: MCF-7, 10, 20 and 30 µM, 24 h, compared to control, β-actin internal control
Experimental: (§2) MCF-7 cells were cultured with different concentrations (10, 20 and 30 µM) of compounds 6 and 10 for 24 h, and the untreated cells were used as a control. The cells were lysed using Trizol reagent (Invitrogen, USA). Total RNA was extracted as per the manufacturer’s instructions. Total RNA was quantitated by taking 2 µL of resuspended RNA on a Nano drop spectrophotometer (Thermo Scientific, USA) and reverse transcribing an equal amount (1 µg) of RNA to make complementary deoxyribonucleic acid (cDNA) using a Super Script VILO cDNA synthesis Kit (Invitrogen), as per the manufacturer’s protocol, in a final volume of 20 µL. The mixture was incubated at 42 °C for 1 h. The generated cDNA (2 µL) was used to assess the mRNA expression of apoptotic genes, including caspase-7, Bax, Bcl-2, and p53. The actin gene was used as an internal control. RT-PCR was performed using 5x Firepol Master Mix ready to load (Solis BioDyne, Tartu, Estonia), as per the manufacturer’s instructions. The program was run as follows: initial denaturation at 95 °C for 5 min, denaturation at 95 °C for 30 s, annealing at 55 °C for 45 s, elongation at 72 °C for 45 s (30 cycles), and final extension at 72 °C for 10 min. The RT-PCR products were electrophoresed on a 1.2% agarose gel containing ethidium bromide, and the gel was imaged on a Licor machine.

[3] = system: A549 cells (non-small cell lung carcinoma); assay: MTT cytotoxicity assay, A549; type: cell-based; details: Homo sapiens, A549, 48 h treatment, mean ± SD (n = 3), NA = no activity
Experimental: (§3) The MTT assay was performed to test the antiproliferative activity of the synthesised compounds, as per the methodology described by Alqahtani and co-workers[35]. Briefly, A549, HepG2, LoVo, MCF-7 and HUVEC cell lines were seeded in 96-cell culture plates (5 × 10^4 per well) and allowed 24 h for adherence. The cells were then treated with different concentrations of each compound, and 5-fluorouracil was used as a positive control. Following the treatment period (48 h), 10 µL of MTT solution (5 mg/mL) was added to each well and the plates were incubated at 37 °C for 2–4 h. Isopropanol (100 µL) acidified with 0.1 N HCl was added to solubilise the formazan products and the plate was kept on a shaker for 10 min. The optical density of each mixture was measured at 570 nm using an enzyme-linked immunosorbent assay plate reader (ELISA plate reader, Bio-Tek, USA). The concentrations of tested compounds required to inhibit cell growth by 50% (IC50) were calculated using a dose-response curve. Cell survival was calculated using the following equation: Cell survival (%)=(OD of treated sample)/(OD of untreated sample)×100

Bcl-2 [4] = assay: Western blot, Bcl-2 protein level in MCF-7 cells; type: cell-based, human; details: MCF-7, 10, 20 and 30 μM, 24 h, β-actin internal control
Experimental: as §1

Bax [5] = assay: Western blot, Bax protein level in MCF-7 cells; type: cell-based, human; details: MCF-7, 10, 20 and 30 μM, 24 h, β-actin internal control
Experimental: as §1

caspase-7 [6] = assay: RT-PCR, caspase-7 mRNA expression in MCF-7 cells; type: cell-based, human; details: MCF-7, 10, 20 and 30 µM, 24 h, compared to control, β-actin internal control
Experimental: as §2

[7] = system: LoVo cells (colon cancer); assay: MTT cytotoxicity assay, LoVo; type: cell-based; details: Homo sapiens, LoVo, 48 h treatment, mean ± SD (n = 3), NA = no activity
Experimental: as §3

p53 [8] = assay: Western blot, p53 protein level in MCF-7 cells; type: cell-based, human; details: MCF-7, 10, 20 and 30 μM, 24 h, β-actin internal control
Experimental: as §1

p53 [9] = assay: RT-PCR, p53 mRNA expression in MCF-7 cells; type: cell-based, human; details: MCF-7, 10, 20 and 30 µM, 24 h, compared to control, β-actin internal control
Experimental: as §2

[10] = system: HUVEC (normal human umbilical vein endothelial cells); assay: MTT cytotoxicity assay, HUVEC; type: cell-based; details: Homo sapiens, HUVEC, 48 h treatment, mean ± SD (n = 3), NA = no activity
Experimental: as §3

MCF-7 cells [11] = assay: Annexin V-FITC/PI apoptosis assay by flow cytometry; type: cell-based, human; details: 24 h, average ± SD, control 2.9 ± 0.84% (6) / 3.3 ± 0.28% (10)
Experimental: Apoptosis was measured using the Annexin V/PI detection kit (BioLegend, CA, USA), as per the manufacturer’s instructions. Briefly, MCF-7 cells were treated with different concentrations (10, 20 and 30 µM) of compounds 6 and 10 for 24 h. After treatment, the detached and adherent cells were collected, washed, and resuspended in 100 µL of 1X binding buffer. Then, 5 µL of Annexin V and 5 µL of PI were added to the resuspended cells. After incubating for 15 min in the dark, 400 µL of binding buffer was added to each tube and cell samples were analysed using Cytomics FC 500 (Beckman Coulter, Brea, CA, USA). Data collection and analysis were conducted using the CXP software V. 3.0 (Aspect, Phoenix, AZ, USA).

[12] = system: MCF-7 cells (human breast cancer cell line); assay: MTT cytotoxicity assay, MCF-7; type: cell-based; details: Homo sapiens, MCF7, 48 h treatment, mean ± SD (n = 3), NA = no activity
Experimental: as §3

Bcl-2 [13] = assay: RT-PCR, Bcl-2 mRNA expression in MCF-7 cells; type: cell-based, human; details: MCF-7, 10, 20 and 30 µM, 24 h, compared to control, β-actin internal control
Experimental: as §2

[14] = system: HepG2 cells (liver cancer); assay: MTT cytotoxicity assay, HepG2; type: cell-based; details: Homo sapiens, HepG2, 48 h treatment, mean ± SD (n = 3), NA = no activity
Experimental: as §3

MCF-7 cells [15] = assay: Cell cycle analysis by flow cytometry (propidium iodide); type: cell-based, human; details: 24 h, average ± SD, control 0.75 ± 0.07%
Experimental: Cell cycle analysis was conducted as previously described by Alqahtani and co-workers[35]. Briefly, MCF-7 cells were seeded in 6-well plates and incubated for 24 h before the addition of various concentrations (10, 20 and 30 µM) of compounds 6 and 10. After incubating for 24 h, the cells were harvested, washed, and resuspended in PBS. The cells were fixed with 70% ethanol at 4 °C for 4 h. The cells were then incubated with RNase (100 µg/mL) and PI (50 µg/mL) for 30 min in the dark. Flow cytometry analysis was performed using Cytomics FC 500 (Beckman Coulter, Brea, CA, USA).

Row | SMILES | caspase-7 protein level (caspase-7 [1]) | melting point [°C] | expression of Bax mRNA (Bax [2]) | IC50 [3] [µM] | Bcl-2 protein expression (Bcl-2 [4]) | Bax protein level (Bax [5]) | expression of caspase-7 mRNA (caspase-7 [6]) | IC50 [7] [µM] | p53 protein level (p53 [8]) | expression of p53 mRNA (p53 [9]) | IC50 [10] [µM] | proportion of cells in early apoptosis (MCF-7 cells [11]; MCF-7, 10 µM) [%] | proportion of cells in early apoptosis (MCF-7 cells [11]; MCF-7, 20 µM) [%] | proportion of cells in early apoptosis (MCF-7 cells [11]; MCF-7, 30 µM) [%] | IC50 [12] [µM] | expression of Bcl-2 mRNA (Bcl-2 [13]) | IC50 [14] [µM] | proportion of sub-G1 phase cells (MCF-7 cells [15]; MCF-7, 10 µM) [%] | proportion of sub-G1 phase cells (MCF-7 cells [15]; MCF-7, 20 µM) [%] | proportion of sub-G1 phase cells (MCF-7 cells [15]; MCF-7, 30 µM) [%]
1 | COc1cccc2c(=O)n(-c3ccc(S(N)(=O)=O)cc3)c(SCC(=O)Nc3ccccc3C)nc12 [Compound 6, 2-((8-Methoxy-4-oxo-3-(4-sulphamoylphenyl)-3,4-dihydroquinazolin-2-yl)thio)-N-(o-tolyl) acetamide] | markedly increased | > 350 | increased | 51.5 ± 1.36 | down-regulated | markedly increased | increased | 22.6 ± 0.86 | markedly increased | increased | 88.27 ± 0.32 | 7.6 ± 1.4 | 11.4 ± 1.97 | 18.35 ± 2.4 | 20.2 ± 0.6 | downregulated | 45.6 ± 0.71 | 3.35 ± 0.07 | 7.8 ± 0.14 | 22.85 ± 1.2
2 | CCc1cccc(NC(=O)CSc2nc3c(OC)cccc3c(=O)n2-c2ccc(S(N)(=O)=O)cc2)c1 [Compound 10, N-(3-Ethylphenyl)-2-((8-methoxy-4-oxo-3-(4-sulphamoylphenyl)-3,4-dihydroquinazolin-2-yl)thio) acetamide] | markedly increased | 292 to 294 | increased | 48 ± 2.78 | down-regulated | markedly increased | increased | 22.3 ± 2.26 | markedly increased | increased | 32 ± 1.47 | 9.55 ± 0.2 | – | 16 ± 0.84 | 20.9 ± 0.4 | downregulated | 42.3 ± 1.59 | 4.3 ± 0.28 | – | 30.6 ± 0.07
